# Columns and labels:
# [1] = ATR-FTIR diffusion of nitrapyrin through polymer film, diffusion constant fitted by Fick's second law model; format: physicochemical
# Text: (§1) In some embodiments of the present disclosure, in order to measure the diffusion of nitrification inhibitors through volatilization barriers and, therefore, provide diffusion constants to estimate the ultimate loss of nitrification inhibitors to volatilization, Fourier transform infrared spectroscopy operating in attenuated total reflectance mode (“ATR-FTIR”) can be employed to probe diffusion of nitrification inhibitors, such as, for example, nitrapyrin, through polymeric materials.
# (§2) A Nicolet 4700 Fourier transform infrared spectrometer (“FTIR”) with SCFGG using attenuated total reflectance (“ATR”) accessory (“Specac”) was utilized in the studies presented herein. Nitrapyrin technical grade manufactured by Dow AgroSciences LLC was used in some of the experiments presented herein. […]
# (§3) Kollidon VA64 was purchased as a vinyl pyrrolidone/vinyl acetate 60/40 copolymer from Sigma Aldrich. […] Film thickness was measured using a Dektak profilometer (Veeco). […]
# (§4) Films were allowed to equilibrate in the FTIR chamber for thirty minutes before the experiments were started. […] A single-beam spectrum was acquired of the film for use as a background spectrum, after which absorbance spectra were continuously recorded throughout the experiment. Peak heights were determined using a macro and data were fit according to the model as described below. […]
# [2] = format: physicochemical
# Text: as §1, §2, §3, §4
# [3] = at 230 Celsius; cited from earlier work
smiles,measurement,setting,value
"Clc1cccc(C(Cl)(Cl)Cl)n1 [nitrapyrin, 2-chloro-6-(trichloromethyl)pyridine]",diffusion profile of nitrapyrin through film,"[1]; Kollidon VA64 film, 30 μm, curve not well-fitting a standard diffusion model",slow through the film before it rapidly equilibrates
same,diffusion constant,[1]; Polyvinyl pyrollidone (K90) film,0.1-1 μm^2/s
same,diffusion constant for nitrapyrin through polymer film (printed as 'partition coefficient'),[2],10^−3-10^−2 μm^2/s
same,vapor pressure,[3],2.8×10^−3 mm Hg

# — patent US20160185682A1, “NITRIFICATION INHIBITOR COMPOSITIONS AND METHODS FOR PREPARING THE SAME” (Dow AgroSciences LLC, priority 2014, published 2016)
